Experimental data: PubChem BioAssay AID1963985 (Molecular Pharmacology Branch, DTP, NCI, 2024)

System: 252836-082-R-J2-PDC tumor spheroids, viability
Test: Anticancer human tumor 252836-082-R-J2-PDC patient-derived head and neck squamous cell carcinoma cell line growth inhibition [PI3K]
Details: spheroids with HUVEC and MSC; for IC50: curve of first compound; for viability, T/C: stronger effect = lower value; active means viability on the fitted dose curve at most 10% of control; inactive means the rest
Source text: Combinatorial screen of targeted agents with the PI3K inhibitors inavolisib, alpelisib, duvelisib, and copanlisib in multi-cell type tumor spheroids
A high-throughput screen of multi-cell type tumor spheroids was designed to identify active combinations of targeted small molecules and PI3K pathway inhibitors. Complex spheroids include a stromal component modeled by human endothelial cells (HUVEC) and fibroblasts modeled by human mesenchymal stem cells (MSCs). The concentration ranges selected for each drug and investigational agent were based upon clinically achievable concentrations if the clinical Cmax of the agent was known.
Compounds. The drugs and investigational agents: inavolisib (NSC800729), alpelisib (NSC765974), duvelisib (NSC772469), copanlisib (NSC816437), ipatasertib (NSC767898), afuresertib (NSC778305), talazoparib (NSC767125), sapanisertib (NSC764658), selumetinib (NSC741078), tovorafenib (DAY101, NSC766906), vemurafenib (NSC761431), ravoxertinib (NSC781343), sotorasib (NSC818433), MRTX1133 (NSC 836407), abemaciclib (NSC 768073), palbociclib (NSC758247), venetoclax (NSC 766270), SY5609 (NSC837396), enzalutamide (NSC755605), and darolutamide (NSC825331), were obtained from the National Cancer Institute (NCI) Developmental Therapeutics Program Chemical Repository. The FDA-approved anticancer drug set is available from the NCI Developmental Therapeutics Program. […] The stock solutions were prepared in dimethyl sulfoxide (DMSO, Sigma-Aldrich, St. Louis, MO, cat. D2650) at 800-fold the tested concentration and stored at -70 degrees C prior to their use. All drugs and investigational agents were tested over a range starting from a high concentration at or near the clinical Cmax and decreasing in half-log increments. If the clinical Cmax for an agent had not been determined, the highest concentration tested was 10 microM.
Cell Culture. All cells were maintained in an incubator at 37 degrees C and 5% CO2 with 95% humidity. The PDC lines were cultured according to standard operating procedures established by the NCI PDMR (https://pdmr.cancer.gov/sops/default.htm). All PDCs were thawed and cultured in Matrigel-coated flasks prepared with a working solution of 1X Ham's F-12 nutrient mix, without supplementation (Invitrogen, Waltham, MA, cat. 11765054), 100 U/mL penicillin-streptomycin (Invitrogen, cat. 15140122), and 2.5% Matrigel (Corning Inc., Corning, NY, cat. 354248) for the first three passages. The 354836-022-R-J1-PDC, 475296-252-R-J1-PDC, and 997726-040-R-J2-PDC lines were cultured in 6A media, which includes advanced DMEM/F-12 (Thermo Fisher Scientific, cat. 12634028), 10 mM HEPES (Thermo Fisher Scientific, cat. 15630080), 1X GlutaMAX supplement (Thermo Fisher Scientific, cat. 35050061), 0.1 mg/mL primocin (InvivoGen, San Diego, CA, cat. ant-pm-2), 10% defined fetal bovine serum, heat inactivated (HyClone Laboratories Inc., Logan, UT, cat. SH30070.03HI), 50% L-WRN conditioned media (ATCC, cat. CRL-3276), 1.25 mM N-Acetyl-L-cysteine (Sigma-Aldrich, cat. A9165), 10 mM nicotinamide (Sigma-Aldrich, cat. N0636), 1X B-27 supplement (Thermo Fisher Scientific, cat. 17504044), 1X N-2 supplement (Thermo Fisher Scientific, cat. 17502048), and 10 microM Y-27632 dihydrochloride (Tocris Bioscience, Bristol, United Kingdom, cat. 1254). The 624824-186-R-J2-PDC line was cultured in 6C/Colon 1B media, which includes all 6A media components plus 50 ng/mL human EGF recombinant protein (Thermo Fisher Scientific, cat. PHG0311). […]

[1] = second compound 0.00316 µM, first compound 0.0316 µM
[2] = second compound 0.00316 µM, first compound 0.1 µM
[3] = second compound 0.00316 µM, first compound 0.316 µM
[4] = second compound 0.00316 µM, first compound 1 µM
[5] = second compound 0.00316 µM, first compound 3.16 µM
[6] = second compound 0.00316 µM, first compound 10 µM
[7] = second compound 0.01 µM, first compound 0.0316 µM
[8] = second compound 0.01 µM, first compound 0.1 µM
[9] = second compound 0.01 µM, first compound 0.316 µM
[10] = second compound 0.01 µM, first compound 1 µM
[11] = second compound 0.01 µM, first compound 3.16 µM
[12] = second compound 0.01 µM, first compound 10 µM
[13] = second compound 0.0316 µM, first compound 0.0316 µM
[14] = second compound 0.0316 µM, first compound 0.1 µM
[15] = second compound 0.0316 µM, first compound 0.316 µM
[16] = second compound 0.0316 µM, first compound 1 µM
[17] = second compound 0.0316 µM, first compound 3.16 µM
[18] = second compound 0.0316 µM, first compound 10 µM
[19] = second compound 0.1 µM, first compound 0.0316 µM
[20] = second compound 0.1 µM, first compound 0.1 µM
[21] = second compound 0.1 µM, first compound 0.316 µM
[22] = second compound 0.1 µM, first compound 1 µM
[23] = second compound 0.1 µM, first compound 3.16 µM
[24] = second compound 0.1 µM, first compound 10 µM
[25] = second compound 0.316 µM, first compound 0.0316 µM
[26] = second compound 0.316 µM, first compound 0.1 µM
[27] = second compound 0.316 µM, first compound 0.316 µM
[28] = second compound 0.316 µM, first compound 1 µM
[29] = second compound 0.316 µM, first compound 3.16 µM
[30] = second compound 0.316 µM, first compound 10 µM
[31] = second compound 1 µM, first compound 0.0316 µM
[32] = second compound 1 µM, first compound 0.1 µM
[33] = second compound 1 µM, first compound 0.316 µM
[34] = second compound 1 µM, first compound 1 µM
[35] = second compound 1 µM, first compound 3.16 µM
[36] = second compound 1 µM, first compound 10 µM
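Further: spheroids exposed to agents for seven days before readout.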
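Wherever viability, T/C is given: percent of vehicle DMSO control viability so 100% = untreated growth.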

CC1(C)CCC(CN2CCN(c3ccc(C(=O)NS(=O)(=O)c4ccc(NCC5CCOCC5)c([N+](=O)[O-])c4)c(Oc4cnc5[nH]ccc5c4)c3)CC2)=C(c2ccc(Cl)cc2)C1 + CC(Nc1ccc2c(c1)OCCn1cc(N3C(=O)OCC3C(F)F)nc1-2)C(N)=O
5 µM: IC50 (second compound 0.0316 µM)
5.66 µM: IC50 (second compound 0.00316 µM)
active: viability, T/C [6] 6.79% | viability, T/C [18] 5.56% | viability, T/C [24] 4.08% | viability, T/C [30] 6.25%
< 0.0316 µM: IC50 (second compound 1 µM)
5.49 µM: IC50 (second compound 0.01 µM)
3.46 µM: IC50 (second compound 0.316 µM)
3.92 µM: IC50 (second compound 0.1 µM)
inactive: viability, T/C [1] 95.4% | viability, T/C [2] 81.6% | viability, T/C [3] 93.3% | viability, T/C [4] 101% | viability, T/C [5] 99% | viability, T/C [7] 98.6% | viability, T/C [8] 87% | viability, T/C [9] 90.1% | viability, T/C [10] 90.9% | viability, T/C [11] 84.7% | viability, T/C [12] 12.2% | viability, T/C [13] 77.6% | viability, T/C [14] 83.8% | viability, T/C [15] 76.5% | viability, T/C [16] 68.9% | viability, T/C [17] 90.1% | viability, T/C [19] 78.7% | viability, T/C [20] 64.9% | viability, T/C [21] 66.1% | viability, T/C [22] 73% | viability, T/C [23] 59.8% | viability, T/C [25] 70.8% | viability, T/C [26] 55.3% | viability, T/C [27] 54.3% | viability, T/C [28] 56.4% | viability, T/C [29] 54.3% | viability, T/C [31] 47.5% | viability, T/C [32] 49.6% | viability, T/C [33] 49.7% | viability, T/C [34] 47.9% | viability, T/C [35] 39.7% | viability, T/C [36] 15.7%

C[C@@H](NC(=O)c1ncnc(N)c1Cl)c1ncc(C(=O)Nc2cc(C(F)(F)F)c(Cl)cn2)s1 + CC(Nc1ccc2c(c1)OCCn1cc(N3C(=O)OCC3C(F)F)nc1-2)C(N)=O
4.55 µM: IC50 (second compound 0.316 µM)
inactive: viability, T/C [1] 96.4% | viability, T/C [2] 76.1% | viability, T/C [3] 90.9% | viability, T/C [4] 90.8% | viability, T/C [5] 77.8% | viability, T/C [6] 77.9% | viability, T/C [7] 98.9% | viability, T/C [8] 91.3% | viability, T/C [9] 85.5% | viability, T/C [10] 100% | viability, T/C [11] 87.4% | viability, T/C [12] 80.2% | viability, T/C [13] 84.5% | viability, T/C [14] 80.5% | viability, T/C [15] 81.5% | viability, T/C [16] 88.4% | viability, T/C [17] 73.8% | viability, T/C [18] 64% | viability, T/C [19] 59.6% | viability, T/C [20] 66.3% | viability, T/C [21] 61.8% | viability, T/C [22] 77.5% | viability, T/C [23] 60.5% | viability, T/C [24] 58.4% | viability, T/C [25] 62.9% | viability, T/C [26] 50.2% | viability, T/C [27] 53.9% | viability, T/C [28] 60.4% | viability, T/C [29] 55.1% | viability, T/C [30] 42.2% | viability, T/C [31] 42.1% | viability, T/C [32] 44.4% | viability, T/C [33] 46.2% | viability, T/C [34] 38.2% | viability, T/C [35] 43.3% | viability, T/C [36] 32.9%
> 10 µM: IC50 (second compound 0.00316 µM) | IC50 (second compound 0.01 µM) | IC50 (second compound 0.0316 µM) | IC50 (second compound 0.1 µM)
< 0.0316 µM: IC50 (second compound 1 µM)
